In brackets after ≈: the same amount, converted by molar mass.
Tested on: P388
Assay: Cytotoxicity against mouse P388 cells
Assay type: functional, cell-based

Compound `COCO[C@H]1CC[C@@]2(C)[C@@H](CC=C3[C@@H]2CC[C@]2(C)[C@@H]([C@H](C)CC[C@@H](C)C(C)C)CC[C@@H]32)C1` has an IC50 of 2.3 µg/mL (≈ 5.17 µM).
